Test results taken from ChEMBL document CHEMBL5338747, “Discovery of Quaternized Pyridine-Thiazole-Pleuromutilin Derivatives with Broad-Spectrum Antibacterial and Potent Anti-MRSA Activity” (J Med Chem, 2023).
Converted amounts (≈) assume the structure as drawn.

Columns and labels:
Staphylococcus aureus [1] = assay: Antibacterial activity against methicillin-resistant Staphylococcus aureus ATCC 33591 assessed as inhibition of bacterial growth incubated for 24 hrs by broth microdilution method; assay type: functional
[2] = Aqueous solubility of the compound in physiological saline measured after 12 hrs by UV spectrophotometric analysis; assay type: physicochemical
Escherichia coli [3] = assay: Antibacterial activity against Escherichia coli CMCC 44103 assessed as inhibition of bacterial growth incubated for 24 hrs by broth microdilution method; assay type: functional
[4] = test system: Staphylococcus epidermidis; assay: Antibacterial activity against methicillin-resistant Staphylococcus epidermidis ATCC 51625 assessed as inhibition of bacterial growth incubated for 24 hrs by broth microdilution method; assay type: functional
Acinetobacter baumannii = assay: Antibacterial activity against Acinetobacter baumannii ATCC 19606 assessed as inhibition of bacterial growth incubated for 24 hrs by broth microdilution method; assay type: functional
Staphylococcus aureus [5] = assay: Antibacterial activity against […] assessed as inhibition of bacterial growth incubated for 24 hrs by broth microdilution method; assay type: functional; conditions: ATCC 29213
Escherichia coli [6] = assay: Antibacterial activity against Escherichia coli ATCC 25922 assessed as inhibition of bacterial growth incubated for 24 hrs by broth microdilution method; assay type: functional
Staphylococcus aureus [7] = assay: Antibacterial activity against methicillin-resistant Staphylococcus aureus ATCC 43300 assessed as inhibition of bacterial growth incubated for 24 hrs by broth microdilution method; assay type: functional
Salmonella enterica = assay: Antibacterial activity against Salmonella enterica ATCC 14028 assessed as inhibition of bacterial growth incubated for 24 hrs by broth microdilution method; assay type: functional

Compound | MIC (Staphylococcus aureus [1]) | solubility at 12 h [2] | MIC (Escherichia coli [3]) | MIC [4] | MIC (Acinetobacter baumannii) | MIC (Staphylococcus aureus [5]) | MIC (Escherichia coli [6]) | MIC (Staphylococcus aureus [7]) | MIC (Salmonella enterica)
C=C[C@]1(C)C[C@@H](OC(=O)CSc2nc(-c3cc[n+](Cc4ccc(Cl)cc4)cc3)cs2)[C@]2(C)[C@H](C)CC[C@]3(CCC(=O)[C@H]32)[C@@H](C)[C@@H]1O.[Br-] | 2 µg/mL | 649 µM | 1 µg/mL | 8 µg/mL | 2 µg/mL | 0.125 µg/mL | 0.5 µg/mL | 2 µg/mL | 2 µg/mL
C=C[C@]1(C)C[C@@H](OC(=O)CSc2nc(-c3cc[n+](Cc4cc(OC)cc(OC)c4)cc3)cs2)[C@]2(C)[C@H](C)CC[C@]3(CCC(=O)[C@H]32)[C@@H](C)[C@@H]1O.[Br-] | 64 µg/mL | 912 µM | 8 µg/mL | 128 µg/mL | 8 µg/mL | 128 µg/mL | 32 µg/mL | 128 µg/mL | 16 µg/mL
C=C[C@]1(C)C[C@@H](OC(=O)CSc2nc(-c3cc[n+](Cc4ccc(C(C)(C)C)cc4)cc3)cs2)[C@]2(C)[C@H](C)CC[C@]3(CCC(=O)[C@H]32)[C@@H](C)[C@@H]1O.[Br-] | 1 µg/mL | 306 µM | 2 µg/mL | 2 µg/mL | 2 µg/mL | 0.25 µg/mL | 2 µg/mL | 2 µg/mL | 2 µg/mL
C=C[C@]1(C)C[C@@H](OC(=O)CSc2nc(-c3cc[n+](CCCCCCCCCCCCCCCC)cc3)cs2)[C@]2(C)[C@H](C)CC[C@]3(CCC(=O)[C@H]32)[C@@H](C)[C@@H]1O.[Br-] | > 128 µg/mL | 187 µM | > 128 µg/mL | > 128 µg/mL | > 128 µg/mL | 64 µg/mL | > 128 µg/mL | 64 µg/mL | > 128 µg/mL
C=C[C@]1(C)C[C@@H](OC(=O)CSc2nc(-c3cc[n+](Cc4ccc(Br)cc4)cc3)cs2)[C@]2(C)[C@H](C)CC[C@]3(CCC(=O)[C@H]32)[C@@H](C)[C@@H]1O.[Br-] | 2 µg/mL | 760 µM | 0.5 µg/mL | 8 µg/mL | 2 µg/mL | 0.5 µg/mL | 2 µg/mL | 1 µg/mL | 4 µg/mL
C=C[C@]1(C)C[C@@H](OC(=O)CSc2nc(-c3cc[n+](Cc4ccc5ccccc5c4)cc3)cs2)[C@]2(C)[C@H](C)CC[C@]3(CCC(=O)[C@H]32)[C@@H](C)[C@@H]1O.[Br-] | 16 µg/mL | 483 µM | 8 µg/mL | 4 µg/mL | 16 µg/mL | 4 µg/mL | 16 µg/mL | 4 µg/mL | 4 µg/mL
C=C[C@]1(C)C[C@@H](OC(=O)CSc2nc(-c3cc[n+](Cc4ccc(OC(F)(F)F)cc4)cc3)cs2)[C@]2(C)[C@H](C)CC[C@]3(CCC(=O)[C@H]32)[C@@H](C)[C@@H]1O.[Br-] | 2 µg/mL | 537 µM | 32 µg/mL | 4 µg/mL | 8 µg/mL | 2 µg/mL | 2 µg/mL | 2 µg/mL | 4 µg/mL
C=C[C@]1(C)C[C@@H](OC(=O)CSc2nnc(-c3ccncc3)o2)[C@]2(C)[C@H](C)CC[C@]3(CCC(=O)[C@H]32)[C@@H](C)[C@@H]1O | 64 µg/mL (≈ 119 µM) | – | 128 µg/mL (≈ 237 µM) | 128 µg/mL (≈ 237 µM) | 128 µg/mL (≈ 237 µM) | 16 µg/mL (≈ 29.6 µM) | > 128 µg/mL | 128 µg/mL (≈ 237 µM) | 64 µg/mL (≈ 119 µM)
C=C[C@]1(C)C[C@@H](OC(=O)CSc2nc(-c3cc[n+](Cc4ccc(C(F)(F)F)cc4)cc3)cs2)[C@]2(C)[C@H](C)CC[C@]3(CCC(=O)[C@H]32)[C@@H](C)[C@@H]1O.[Br-] | 2 µg/mL | 899 µM | 2 µg/mL | 2 µg/mL | 2 µg/mL | 0.25 µg/mL | 1 µg/mL | 4 µg/mL | 2 µg/mL
C=C[C@]1(C)C[C@@H](OC(=O)CSc2nc(-c3ccncc3)cs2)[C@]2(C)[C@H](C)CC[C@]3(CCC(=O)[C@H]32)[C@@H](C)[C@@H]1O | 16 µg/mL (≈ 28.8 µM) | – | 32 µg/mL (≈ 57.7 µM) | 32 µg/mL (≈ 57.7 µM) | 64 µg/mL (≈ 115 µM) | 8 µg/mL (≈ 14.4 µM) | 64 µg/mL (≈ 115 µM) | 32 µg/mL (≈ 57.7 µM) | 32 µg/mL (≈ 57.7 µM)
C=C[C@]1(C)C[C@@H](OC(=O)CSc2nnc(-c3cc[n+](Cc4ccc(C#N)cc4)cc3)o2)[C@]2(C)[C@H](C)CC[C@]3(CCC(=O)[C@H]32)[C@@H](C)[C@@H]1O.[Br-] | 32 µg/mL | – | 64 µg/mL | 64 µg/mL | > 128 µg/mL | 16 µg/mL | 64 µg/mL | 16 µg/mL | 32 µg/mL
